From US11185527B2, “Methods and compositions relating to steroid hormone receptor-dependent cancers” (Wayne State University, priority 2017, dated 2021)

What was measured:
[1] = test system: 22Rv1 cells; assay: Cell monolayer growth assay (MTT); assay type: cell-based, human; settings: enzalutamide up to 20 uM
Procedure: Twenty four hours after plating the 22Rv1 cells, they were treated with the indicated concentrations of KCI807 (FIG. 4C) or with the indicated concentrations of enzalutamide (ENZ) (FIG. 4D).
Twenty four hours after plating the cells, they were treated with the indicated concentrations of the compound.
FIG. 16D is a graph showing the effect of 5′-Fluoro-5,3′-Dihydroxyflavone at various concentrations on growth of 22Rv1 cells.
(§1) Cells were trypsinized and 3000-4000 cells/well were seeded in 96-well plates coated with poly-D-lysine. The cells were seeded in phenol red-free medium supplemented with 10% FBS, 100 units/ml penicillin, 100 μg/ml streptomycin, 2 mM L-glutamine mixture and sodium pyruvate (1 mM) for LNCaP cells and phenol red-free medium supplemented with 10% FBS, 100 units/ml penicillin, 100 μg/ml streptomycin and 2 mM L-glutamine mixture for VCaP, 22Rv1, DU145, HeLa, HEK293 and H1650 cells. The cells were grown at 37° C. in 5% CO2. Twenty four hours after seeding in the 96-well plates, the cells were treated with the indicated concentration of KCI807 or DMSO (vehicle). The cells were re-treated on Day 3 by removing half the volume of medium and replacing it with fresh treated medium. Cell viability was determined using the MTT assay from day zero until day five. MTT (10 μL, 5 mg/mL) was added to each well and incubated for 2h at 37° C. The formazan crystal sediments were dissolved in 100 μL of DMSO, and the absorbance at 570 nm was measured using the BioTek Synergy 2 Microplate Reader (BioTek, Winooski, Vt.). The assay was conducted in sextuplicate wells and values were normalized to day zero.

[2] = test system: LNCaP cells; assay: Cell monolayer growth assay (MTT); assay type: cell-based; settings: enzalutamide up to 20 uM
Procedure: as §1, with “Twenty four hours after plating the LNCaP cells, they were treated with the indicated concentrations of KCI807 (FIG. 4E) or with the indicated concentrations of enzalutamide (ENZ) (FIG. 4F). […] Cells” for “Cells”

[3] = test system: VCaP cells; assay: Cell monolayer growth assay (MTT); assay type: cell-based
Procedure: as §1, with “Twenty four hours after plating the VCaP cells, they were treated with the indicated concentrations of KCI807 (FIG. 4G) or with the indicated concentrations of enzalutamide (ENZ) (FIG. 4H). […] Cells” for “Cells”

[4] = test system: DU145 (prostate cancer cells), AR-negative; assay: Cell monolayer growth assay (MTT); assay type: cell-based
Procedure: FIG. 12A is a graph showing the effect of KCI807 on in vitro growth of AR-negative cell line Du145 cells measured by the MTT assay. All values were plotted relative to the Day zero value.
FIG. 16E is a graph showing the effect of 5′-Fluoro-5,3′-Dihydroxyflavone at various concentrations on growth of DU145 cells.
as §1, with “MTT (10 μL, 5 mg/mL) was added to each well and incubated for 2h at 37° C.” left out, “The assay was conducted in sextuplicate wells and values were normalized to day zero.” left out

[5] = test system: PDX-PR011 tumor xenograft; assay: PDX-PR011 patient-derived CRPC tumor xenograft in male SCID mice, tumor growth; assay type: in vivo, mouse; settings: treatment from Day 1; KCI807 IP as for 22Rv1; enzalutamide oral 50 mg/Kg daily
Procedure: FIG. 5B is a graph showing results obtained when PDX-PR011 tumor xenografts were implanted sc into male SCID mice in both flanks. The vehicle control and KCI807 were administered as described for FIG. 5A with the exception that treatment was begun on Day 1 after tumor implantation. Tumor volumes were monitored as described herein.
FIG. 14 is a graph showing results obtained when PDX-PR011 tumor xenografts were implanted sc into male SCID mice in both flanks. […] Treatment was begun on Day 1 after tumor implantation.

Row | Compound | growth inhibition of 22Rv1 cells [1] | growth inhibition of LNCaP cells [2] | growth inhibition of VCaP cells [3] | growth of DU145 cells [4] | tumor growth inhibition, PDX-PR011 xenograft [5]
1 | O=c1cc(-c2cc(O)cc(F)c2)oc2cccc(O)c12 [5′-fluoro-5,3′-dihydroxyflavone] | inhibited growth | inhibited growth | inhibited growth | did not inhibit growth | –
2 | O=c1cc(-c2cccc(O)c2)oc2cccc(O)c12 [KCI807, 5,3′-dihydroxyflavone] | completely inhibited cell growth | completely inhibited cell growth | most sensitive | did not appreciably affect the growth | significantly inhibited
3 | CNC(=O)c1ccc(N2C(=S)N(c3ccc(C#N)c(C(F)(F)F)c3)C(=O)C2(C)C)cc1F [enzalutamide] | only showed partial effects | only showed partial effects | most sensitive | – | not inhibited
